According to PubChem BioAssay (NCI):
Several values for one entry are separate records, joined by “and”; a condition that tells them apart may be missing. Equal entries are not always repeated.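 Compound exposure: 48 hours, 5 concentrations, 96-well plates. At the GI50, growth is halved. At the TGI there is no net growth.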

Tests used:
Assay in all cases: inhibition of tumour cell growth, NCI panel, 48 h
HOP-62 NSCLC = tested on: HOP-62 NSCLC
HS 578T breast = tested on: HS 578T breast
K-562 leukemia = tested on: K-562 leukemia
KM12 colon = tested on: KM12 colon
RPMI-8226 leukemia = tested on: RPMI-8226 leukemia
SF-268 CNS = tested on: SF-268 CNS
SF-295 CNS = tested on: SF-295 CNS
SR leukemia = tested on: SR leukemia
UACC-257 melanoma = tested on: UACC-257 melanoma
UO-31 renal = tested on: UO-31 renal

Compound | TGI (HOP-62 NSCLC) [µM] | TGI (HS 578T breast) [µM] | TGI (K-562 leukemia) [µM] | TGI (KM12 colon) [µM] | TGI (RPMI-8226 leukemia) [µM] | TGI (SF-268 CNS) [µM] | TGI (SF-295 CNS) [µM] | TGI (SR leukemia) [µM] | TGI (UACC-257 melanoma) | TGI (UO-31 renal) | GI50 (HOP-62 NSCLC) [µM] | GI50 (HS 578T breast) [µM] | GI50 (K-562 leukemia) [µM] | GI50 (KM12 colon) | GI50 (RPMI-8226 leukemia) [µM] | GI50 (SF-268 CNS) [µM] | GI50 (SF-295 CNS) [µM] | GI50 (SR leukemia) [µM] | GI50 (UACC-257 melanoma) | GI50 (UO-31 renal) [µM]
N/C(CC(=O)Nc1cc(C(F)(F)F)ccc1Cl)=N\O | > 100 | > 100 | > 100 | > 100 | > 100 | > 100 | > 100 | > 100 | > 100 µM | > 100 µM |  |  |  |  |  |  |  |  |  | 
Cc1nn(-c2ccc(S(=O)(=O)[O-])cc2)c([O-])c1N=[N+](C)c1ccc(-c2ccc(N=Nc3ccc4c(S(=O)(=O)[O-])cc(S(=O)(=O)[O-])c(N)c4c3[O-])c([O-])c2)cc1[O-].[Cu+2].[Cu+2].[Na+] | > 100 | > 100 | > 100 | > 100 | > 100 | > 100 | > 100 | > 100 | > 100 µM | > 100 µM | > 100 | > 100 | > 100 | > 100 µM | > 100 | > 100 | > 100 | > 100 | > 100 µM | 3.19
O=C(CSc1nc2ccc([N+](=O)[O-])cc2[nH]1)Nc1ccc(F)c(Cl)c1 | 9.89 | 9.63 | > 42.3 | 12.2 | > 21.5 | 13.2 | 5.5 | > 37.3 | 6.32 µM | 7.8 µM | 2.46 | 2.45 | 2.44 | 2.83 µM | 1.39 | 2.91 | 1.81 | 3 | 1.54 µM | 1.69
CCOc1ccc(S(=O)(=O)/N=C2\C=C(SCC(=O)O)C(=O)c3ccccc32)cc1 | 44.8 | 6.79 | 10.6 | 10.3 | 13.2 | 12.2 | 30.2 | 5.26 | 39.3 µM | 15.8 µM | 20.7 | 2.6 | 3.35 | 2.8 µM | 2.05 | 2.95 | 13 | 0.538 | 16.1 µM | 4.13
C=C1C(=O)O[C@H]2[C@H]1CC/C(CNC(=O)c1c[nH]c3ccc(F)cc13)=C\CC[C@@]1(C)O[C@@H]21 | 19.7 | 13.1 | 6.17 | 10.2 | 3.72 | 4.45 | 17 | 4.78 | 4.89 µM | 2.48 µM | 4.12 | 2.65 | 0.856 | 2.69 µM | 1.14 | 1.78 | 3.71 | 1.01 | 2.06 µM | 1.14
C=CC(=O)N[C@H]1C=C(C)c2c(-c3cnc4ccccc4c3)c3c(N)ncnc3n2C1 | 66.7 | 46.6 | > 100 | 45.6 | 60.6 | 72.9 | 68 | > 100 | > 80.4 µM | 11.5 µM | 20.9 | 8.14 | 24.8 | 19.5 µM | 17.9 | 5.81 | 22.9 | 18.3 | 13.4 µM | 0.61
O=C(Nc1nc2ccccc2s1)OCC(F)(F)F | > 100 | > 100 | > 100 | > 100 | > 100 | > 100 | > 100 | > 100 | > 100 µM | > 100 µM | > 100 | > 100 | > 100 | > 100 µM | > 100 | > 100 | > 100 | > 100 | > 100 µM | 45.6
O=C(NNc1nc2c(F)cccc2n2cccc12)c1cnccn1 | 20 | 80.4 | > 100 | 27.1 | 9.88 | > 67.7 | 16 | > 37.7 | 8.31 µM | 13.6 µM | 0.365 | 7.05 | 0.478 | 0.458 µM | 0.418 | 0.484 | 0.401 | 0.392 | 1.15 µM | 0.216
Brc1cccc(-c2cc(-c3ccc4c(c3)OCCO4)[nH]n2)c1 | 41.3 | 30.6 | 250 | 25.5 | 236 | 37.1 | 32.7 | 136 | 52.9 µM | 36.6 µM | 1.38 | 1.25 | 0.584 | 0.669 µM | 1.43 | 3.11 | 2.93 | 0.581 | 11.6 µM | 4.24
O=C(Nc1cccc(-n2ccc3c(NC(=O)c4ccccc4)nccc32)c1)c1cccc(C(F)(F)F)c1 | 16.5 | 3.28 | > 38.2 | 1.4 | 1.17 | 12.4 | 0.468 |  | 19.9 µM | 16 µM | 0.0543 | 0.0305 | 0.0391 | 0.0341 µM | 0.0327 | 0.0709 | 0.0278 | 0.0284 | 0.0804 µM | 0.312
COC1(C(=O)N2Cc3nc(Cl)nc(N[C@H](C)c4cc(N)cc(C(F)(F)F)c4)c3C2)CCOCC1 | 36 | 80.3 | > 68.4 | 54.3 | > 83.2 | 49.1 | 26.2 | 48.8 | 37.3 µM | 43.3 µM | 15.2 | 17.7 | 0.888 | 13.6 µM | 22.2 | 13.7 | 12.5 | 2.92 | 17.2 µM | 7.63
Cc1ccn2c3c(c(C(=O)O)c2c1)C(=O)c1ccccc1C3=O | > 100 | 29.8 | > 100 | > 100 | > 100 | > 100 | 8.68 | > 100 | > 60.3 µM | > 100 µM | 5.93 | 3.71 | > 100 | 9.31 µM | > 100 | > 100 | 2.25 | > 30.5 | 4.41 µM | 25.8
CC(C)(C)OC(=O)NC(Cc1ccccc1)C(=O)OCN1C(=O)C2C3C=CC(C2C1=O)C1C2C(=O)N(COC(=O)C(Cc4ccccc4)NC(=O)OC(C)(C)C)C(=O)C2C31 (stereo not drawn) | > 100 | 54.3 | > 100 | > 100 | > 100 | > 88.9 | > 100 | 4.06 | > 100 µM | > 87.9 µM |  |  |  |  |  |  |  |  |  | 
C#Cc1cnc(=O)n(C2CC(O)C(CO)O2)c1 (stereo not drawn) | > 100 | > 100 | > 100 | > 100 | > 22.8 | > 100 | > 100 | > 100 | 98.1 µM | > 100 µM | > 100 | > 100 | > 100 | > 100 µM | 8.51 | > 100 | > 100 | 91.5 | > 54.5 µM | > 100
N#CC(=C1SCS1)[N+](=O)[O-] | 21.1 | 41.2 | > 100 | 14.2 | 4.06 | 20.1 | 44.4 | 4.31 | 7.06 µM | 24.3 µM | 4.9 | 3.67 | 0.371 | 3.29 µM | 0.678 | 3.64 | 4.82 | 0.568 | 1.09 µM | 6.04
O=C(CCN1CCN(c2cnc3ccccc3n2)CC1)c1csc2ccccc12 | > 100 | > 100 | > 100 | > 100 | > 100 | > 100 | > 100 | > 100 | > 100 µM | 77.5 µM | 58.6 | 43.6 | 28.6 | 33.5 µM | 9.4 | > 100 | 36.1 | 36.1 | > 100 µM | 25.1
CCc1c2c(nc3cc4c(cc13)OCO4)-c1cc3c(c(=O)n1C2)COC(=O)[C@]3(O)CC | > 100 | > 100 | > 100 | > 100 | 0.391 | 0.622 |  |  | 2.04 µM and 2.71 µM | 0.401 µM and 0.0689 µM |  |  |  | 0.184 µM and 0.191 µM | 0.00315 | 0.00907 | < 0.001 | < 0.001 | 0.135 µM and 0.194 µM | 0.0103
COc1ccc(C(=S)N2CCN(c3cccc(Cl)c3)CC2)cc1 | > 100 | > 100 | > 100 | > 100 | > 100 | > 100 | > 100 | > 100 | > 100 µM | > 100 µM | > 100 | > 100 | 72.8 | > 100 µM | 45.4 | > 100 | 95.9 | > 100 | > 100 µM | 43.3
NC(N)=N/N=C(/c1ccccc1)c1ccc(F)cc1 | 13.1 | 27.7 | 27.7 | 7.5 | 21.6 | 14.4 | 2.25 | 6.11 | 32.8 µM | 14.6 µM | 0.85 | 0.452 | 0.38 | 0.32 µM | 0.558 | 0.543 | 0.243 | 0.286 | 2.94 µM | 0.991
CN(C)CC(=O)N1CCC(c2ccc(NC(=O)c3ncc(C#N)[nH]3)c(C3=CCCCC3)c2)CC1 | 19.4 | 12.4 | 12 | 13.8 | 34.6 | 24.2 | 15.7 | 6.52 | 4.8 µM | 15 µM | 7.07 | 2.18 | 3.21 | 0.354 µM | 8.76 | 10.4 | 3.75 | 2.58 | 2.17 µM | 3.61
Cc1nn(-c2ccc(F)cc2)c2ncnc(Nc3ccc(NC(=O)Nc4ccc(Cl)c(C(F)(F)F)c4)cc3)c12 | 6.83 | 9.47 | > 100 | 10.9 | 9.54 | 21.8 | 6.17 | 40.5 | 5.99 µM | 4.17 µM | 2.25 | 2.66 | 1.75 | 2.66 µM | 1.71 | 3.55 | 2.25 | 3.07 | 2.25 µM | 1.65
Fc1cccc(COc2ccc(Nc3ncncc3C#Cc3ccccc3)cc2Cl)c1 | > 25 | > 25 | > 25 | > 25 | > 25 | > 25 | > 25 | > 25 | > 25 µM | > 25 µM | > 25 | > 25 | > 25 | > 25 µM | > 25 | > 25 | > 25 | > 25 | > 25 µM | 21.6
C[C@@H]1CC[C@@H]2[C@@H]1[C@H](OC(=O)/C=C/c1ccccc1)[C@]1(c3ccccc3)C[C@@H](OC(=O)CO)[C@@]2(C)O1 | 31.1 | 0.708 | > 100 | 38.1 | 38.9 | 37.7 | 32.3 | 38.8 | 43.1 µM | 0.305 µM | 16.2 | 0.112 | 7.76 | 15.2 µM | 10.3 | 10.4 | 12.8 | 5.86 | 21.1 µM | 0.154
N#Cc1c(NC(=O)c2cccc(C(F)(F)F)c2)sc2c1CCC(=O)C2 | > 26.4 | 3.77 |  | 1.95 | 0.869 | 5.9 | 3.88 | > 31.8 | 3.85 µM | 1.38 µM | 1.76 | 0.542 | 0.217 | 0.477 µM | 0.239 | 0.91 | 0.845 | 0.347 | 0.728 µM | 0.355
